Here are results for 13 molecules from ChEMBL document CHEMBL1201862, “PubChem BioAssay data set” (2004).

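These data come from cells grown in 96-well plates and exposed to compound for 48 hours at five concentrations. Here, GI50 denotes the concentration required for 50% inhibition of growth.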 The source made the active and inactive calls. Rule as the data show it: active = GI50 up to about 1.1 µM and inactive = higher.

Experiment in all cases: NCI tumour cell line growth inhibition, 48 h
Experiment [1] relates to UACC-257.
Experiment [2] concerns ACHN.
The subject of experiment [3] is RPMI-8226.
In experiment [4] the test system is NCI-H522.
Experiment [5] concerns SF-295.
For experiment [6], the system named is CAKI-1.
Experiment [7] deals with RXF 393.
Experiment [8] relates to LOX IMVI.
Experiment [9] deals with KM12.
In experiment [10] the test system is OVCAR-8.
The test system of experiment [11] is M14.
Experiment [12] concerns NCI-H226.
Experiment [13] relates to UO-31.
Experiment [14] deals with HCT-15.
Experiment [15] deals with 786-0.
For experiment [16], the system named is HL-60.
Experiment [17] has as its system MOLT-4.

On to `CCCCCCCCOCC(O)CO` (centres undefined), for which the GI50 in experiment [1] is > 100 µM (inactive); in [2], > 100 µM (inactive); in experiment [3] it was 44.6 µM (inactive); in [4], 28 µM (inactive); in [5] it was > 100 µM (inactive); in [6], > 100 µM (inactive). Further, the GI50 in experiment [7] was > 100 µM (inactive); in experiment [8], > 100 µM (inactive); in experiment [9], 29.5 µM (inactive); in experiment [10], > 100 µM (inactive); in [11], > 100 µM (inactive); in experiment [12], 84.9 µM (inactive). The GI50 in experiment [13] is > 100 µM (inactive); in experiment [14] it was more than 100 µM; in experiment [15], > 100 µM (inactive); in experiment [16], > 100 µM (inactive); in experiment [17], 44.7 µM (inactive).
Turning to `CCOC(=O)CC[C@@H](NC(=O)c1ccc(N[C@@H]2c3cc4c(cc3C(c3cc(OC)c(O)c(OC)c3)C3C(=O)OC[C@@H]32)OCO4)cc1)C(=O)OCC` (some centres undefined), the GI50 in [1] is 0.13 µM (active); in experiment [2] it was 0.0115 µM (active); in experiment [3] it was 0.0411 µM (active); in experiment [4], 0.0975 µM (active); in [5] it was 0.0121 µM (active); in experiment [6] it was 0.013 µM (active). Further, the GI50 in experiment [8] was 0.0205 µM (active); in [9] it was 0.0322 µM (active); in experiment [10], 0.0251 µM (active); in experiment [11], 5.24 µM (inactive); in [13] it was 0.0627 µM (active); in [14], 0.0637 µM. In addition, the GI50 in experiment [15] is 3.85 µM (inactive); in [16], 0.00292 µM (active); in experiment [17], 0.00194 µM (active).
Turning to `CC(C)(CN1CCCCC1)C(=O)/C=C/c1ccc(Cl)cc1`, the GI50 is 6.4 µM (inactive) in experiment [1]; 5.12 µM (inactive) in experiment [2]; 2.94 µM (inactive) in [3]; 2.73 µM (inactive) in experiment [4]; 3.03 µM (inactive) in experiment [5]; 3.86 µM (inactive) in experiment [7]. The GI50 in experiment [8] was 2.84 µM (inactive); in experiment [9], 2.95 µM (inactive); in [10], 2.32 µM (inactive); in experiment [11], 2.51 µM (inactive); in experiment [12], 4.41 µM (inactive); in experiment [13], 7.5 µM (inactive). Besides, the GI50 was 2.65 µM in [14], 2.72 µM (inactive) in [15], 2.15 µM (inactive) in experiment [16] and 1.81 µM (inactive) in [17].
Consider `C/C(=N/NS(=O)(=O)c1ccccc1)c1cccc[n+]1[O-]`, for which the GI50 in experiment [1], in experiment [2], in experiment [3], in experiment [4], in experiment [5] and in experiment [6] was > 100 µM (inactive) in each case. In addition, the GI50 in experiment [9] is > 100 µM (inactive); in experiment [10] it was > 100 µM (inactive); in experiment [11], > 100 µM (inactive); in experiment [13], > 100 µM (inactive); in [14], more than 100 µM; in experiment [15], > 100 µM (inactive). The GI50 in experiment [16] and in experiment [17] was > 100 µM (inactive) each time.
With `CC(C)C1(O)C(c2ccccc2)=C(c2ccccc2)C(c2ccccc2)=C1c1ccccc1`, the GI50 is 5.36 µM (inactive) in experiment [1]; 2.28 µM (inactive) in [3]; 4.35 µM (inactive) in experiment [4]; 12.6 µM (inactive) in experiment [5]; 11.7 µM (inactive) in experiment [6]; 2.82 µM (inactive) in experiment [7]. Moreover, the GI50 in experiment [8] is 6.59 µM (inactive); in [9], 4.9 µM (inactive); in [10], 10.3 µM (inactive); in experiment [11], 6.95 µM (inactive); in experiment [12] it was 7.26 µM (inactive); in [13], 2.46 µM (inactive). Besides, the GI50 is 5.22 µM in experiment [14], 5.78 µM (inactive) in experiment [15], 2.65 µM (inactive) in experiment [16] and 3.21 µM (inactive) in experiment [17].
On to `CCCCCCCCCCCCCCCCCC(=O)OCC(C[As](=O)(O)O)OC(=O)CCCCCCCCCCCCCCCCC` (centres undefined), for which the GI50 in experiment [1] was > 100 µM (inactive); in experiment [2], 34.3 µM (inactive); in experiment [3], 28.3 µM (inactive); in experiment [4] it was 33.1 µM (inactive); in experiment [5], 32.7 µM (inactive); in experiment [6], 65.5 µM (inactive). Besides, the GI50 in [7] is 19.2 µM (inactive); in [9], > 100 µM (inactive); in experiment [10], > 100 µM (inactive); in experiment [11] it was > 100 µM (inactive); in [12], 24.4 µM (inactive); in experiment [13], > 100 µM (inactive). Moreover, the GI50 was 38.4 µM in experiment [14], 27.2 µM (inactive) in experiment [15], > 100 µM (inactive) in experiment [16] and > 100 µM (inactive) in [17].
On to `CC(=O)OC1(Sc2ccccc2)CC2[C@H]3COC(C)(C)O[C@H]3CC[C@@]2(C)CC1=O` (some centres undefined), for which the GI50 is 49.9 µM (inactive) in experiment [1]; 41.5 µM (inactive) in [2]; 21.1 µM (inactive) in experiment [3]; 32.3 µM (inactive) in experiment [4]; 55.8 µM (inactive) in [5]; 48.8 µM (inactive) in experiment [6]. Also, the GI50 was 47.2 µM (inactive) in experiment [7]; 43.5 µM (inactive) in [9]; 74.8 µM (inactive) in experiment [10]; 34.6 µM (inactive) in experiment [11]; 20.2 µM (inactive) in [12]; 19 µM (inactive) in experiment [13]. In addition, the GI50 in experiment [14] is 34.9 µM; in experiment [15], 33.7 µM (inactive); in [17], 9.95 µM (inactive).
As to `COC(=O)n1c(CBr)c(Br)c2ccccc21`, the GI50 in experiment [1] was 39.2 µM (inactive); in [2], 18.6 µM (inactive); in experiment [3], 21 µM (inactive); in experiment [4] it was 17.2 µM (inactive); in experiment [5], 23.7 µM (inactive); in experiment [6] it was 23.8 µM (inactive). Besides, the GI50 was 42.9 µM (inactive) in experiment [9]; 48.2 µM (inactive) in experiment [10]; > 100 µM (inactive) in [11]; 13.1 µM (inactive) in experiment [12]; 18.2 µM (inactive) in experiment [13]; 42.2 µM in experiment [14]. For the same molecule, the figures for the GI50 in [15], in [16] and in experiment [17] were 45 µM (inactive), 22.4 µM (inactive) and 26.2 µM (inactive), respectively.
Regarding `CC1O[C@@H]2CCCCC(=O)[C@]2(C)[C@H]1C` (some centres undefined), the GI50 is > 100 µM (inactive) in [1]; > 100 µM (inactive) in experiment [2]; > 100 µM (inactive) in experiment [3]; > 100 µM (inactive) in experiment [5]; > 100 µM (inactive) in experiment [6]; 70.3 µM (inactive) in experiment [7]. For the same molecule, the GI50 in experiment [8], in experiment [9], in experiment [10], in experiment [11], in [12] and in [13] was > 100 µM (inactive) each time. Further, the GI50 in experiment [14] is more than 100 µM; in [15], > 100 µM (inactive); in [16] it was > 100 µM (inactive); in experiment [17], > 100 µM (inactive).
In the case of `Cc1cc(C)c2c(c1)Nc1ccccc1P2c1ccccc1` (centres undefined), the GI50 in experiment [2] was > 10 µM (inactive); in [3] it was 3.89 µM (inactive); in experiment [5], 20 µM (inactive); in experiment [6], 11 µM (inactive); in experiment [7] it was 29.2 µM (inactive); in [8], 27.2 µM (inactive). Also, the GI50 in [10] was 31.6 µM (inactive); in [11], 36.8 µM (inactive); in [13] it was 19.1 µM (inactive); in experiment [14], 16.9 µM; in [15], 36.5 µM (inactive); in [16] it was 23.9 µM (inactive). Moreover, the GI50 in experiment [17] is 4.51 µM (inactive).
Turning to `O=C(Cc1nc2sc3c(c2c(=O)[nH]1)CCCC3)Nc1ccccc1`, the GI50 is > 100 µM (inactive) in experiment [2]; > 100 µM (inactive) in experiment [3]; > 100 µM (inactive) in experiment [4]; > 100 µM (inactive) in experiment [5]; > 100 µM (inactive) in experiment [6]; 15.5 µM (inactive) in experiment [7]. Further, the GI50 in experiment [8] is > 100 µM (inactive); in experiment [9] it was > 100 µM (inactive); in [10], > 100 µM (inactive); in [11], > 100 µM (inactive); in experiment [12], > 100 µM (inactive); in experiment [14] it was more than 100 µM. Further, the figures for the GI50 in [15], in experiment [16] and in [17] were 71.1 µM (inactive), > 100 µM (inactive) and > 100 µM (inactive), respectively.
In the case of `O=C(CC(O)(c1ccccc1)c1ccc(Cl)cc1)NC(=O)c1ccccc1O` (centres undefined), the GI50 in [1] is 10.3 µM (inactive); in [2] it was 4.49 µM (inactive); in experiment [4] it was 3.16 µM (inactive); in experiment [5] it was 4.4 µM (inactive); in experiment [6] it was 3.95 µM (inactive); in experiment [7] it was 11.7 µM (inactive). The GI50 in [8] was 9.2 µM (inactive); in [9], 3.86 µM (inactive); in [10], 4.54 µM (inactive); in experiment [11], 12.4 µM (inactive); in experiment [12] it was 7.87 µM (inactive); in experiment [13], 2.42 µM (inactive). The GI50 in experiment [14] was 4.12 µM; in experiment [15] it was 10.5 µM (inactive); in experiment [16], 4.6 µM (inactive); in [17], 10 µM (inactive).
For `Cn1nc(-c2cccc(-c3nn(C)/c(=N\CCO)s3)n2)s/c1=N/CCO`, the GI50 in experiment [1] was > 100 µM (inactive); in experiment [2] it was > 100 µM (inactive); in [3], 63 µM (inactive); in [4] it was 36.5 µM (inactive); in experiment [5], > 100 µM (inactive); in experiment [7], > 100 µM (inactive). Moreover, the GI50 was > 100 µM (inactive) in experiment [8]; > 100 µM (inactive) in experiment [9]; > 100 µM (inactive) in [10]; > 100 µM (inactive) in experiment [11]; > 100 µM (inactive) in experiment [12]; more than 100 µM in [14]. For the same molecule, the GI50 in [15], in experiment [16] and in [17] was > 100 µM (inactive) each time.
